From patent US6562758B1 (priority 1999, dated 2003)
Several values for one entry are separate records, joined by “and”; a condition that tells them apart may be missing. Equal entries are not always repeated. Where two headings read alike, the source gives them in different places.

Legend:
Settings in all cases: in vivo
[1] = system: kidney beans; parameters: species or system kidney bean
[2] = system: cotton plants; parameters: species or system cotton (Gossypium hirsutum)
[3] = system: cotton plants; parameters: species or system cotton (Gossypium hirsutum); remark: listed apart in the source
[4] = system: kidney beans; parameters: species or system kidney bean; remark: listed apart in the source
[5] = system: red kidney bean plants
[6] = system: red kidney bean plants; remark: listed apart in the source
[7] = system: cotton plants; parameters: species or system cotton (Gossypium hirsutum); remark: listed apart in the source
[8] = system: cotton plants; parameters: species or system cotton (Gossypium hirsutum); remark: listed apart in the source
[9] = system: potato plants

| SMILES | % Regrowth at 21 DAT [1] | regrowth [1] | % Defoliation [2] | % Regrowth Avg. [3] | % Defoliation 15 DAT [4] [%] | % Defoliation [5] | % Regrowth [6] [%] | % Defoliation [7] | % Regrowth 20 DAT [8] [%] | Percent Defoliation [9] |
| --- | --- | --- | --- | --- | --- | --- | --- | --- | --- | --- |
| CCOC(=O)/C(Cl)=C/c1cc(N2C(=O)C3=C(CCCC3)C2=O)ccc1Cl [BAS 123W, cinidon-ethyl] | 124% and 110% and 73% | tended to promote regrowth | – | – | – | – | – | – | – | – |
| C/C(=N\NC(=O)Nc1cc(F)cc(F)c1)c1ncccc1C(=O)O [DFP, diflufenzopyr] | – | reduced regrowth as compared to the untreated check | 23% and 40% and 39% and 21% | 7% and 6% | 59 | – | – | – | – | – |
| O=P(O)(O)CCCl [ETP, (2-chloroethyl)phosphonic acid] | – | – | 58% and 78% | 51% | 28 | 18% and 20% | 10 | 31% and 49% | 36.3 | – |
| C[n+]1ccc(-c2cc[n+](C)cc2)cc1 [Paraquat, paraquat] | – | – | – | – | – | – | – | – | – | 76% and 44% |
